Counter-ions that a name gives are not always drawn.
Tests used:
platelet coagulation [1] = assay: Inhibitory activities of test compounds against platelet coagulation in vitro (ADP-induced, rat platelet-rich plasma, aggregometer); type: cell-based; details: 10 μg/ml test substance in rat PRP, maximum rate of platelet coagulation over 5 min; for inhibition at 10 µg/mL: 5 min, read-out: Test Example 1 (% inhibition)
Protocol: Confirmation of Inhibitory Activities of Test Compounds Against Platelet Coagulation In Vitro
Three to four male Sprague-Dawley rats (8 weeks of age, Japan SLC., Inc.) per group were used in the present test. Platelet coagulation was determined by platelet aggregometer (MCM Hema Tracer 313M, MC Medical, Inc.) according to modified methods described by Born et al. (Journal of Physiology, vol. 168, 178 (1963)). Blood (6.3 ml) was collected from abdominal aorta of rats anesthetized with pentobarbital sodium (40 mg/kg) with a microsyringe containing 0.7 ml of sodium citrate at a concentration of 3.8% as anti-coagulant. The obtained blood containing sodium citrate was centrifuged (230×g for 15 min at room temperature) and plate-rich plasma (hereinafter referred to as PRP) fraction was isolated. Furthermore, after PRP was isolated, the blood was further centrifuged (2,000×g for 10 min at room temperature) and platelet-poor plasma (hereinafter referred to as PPP) fraction was isolated. Platelet count in PRP was determined by automated hematology analyzer (KX-21N, SYSMEX CORPORATION) and adjusted as 5×10^8/ml. After PRP (239 μl) was put into each cuvette, the test substance dissolved in dimethyl sulfoxide (DMSO, 1 μl) was added to the PRP solution and assessed by automated hematology analyzer. In the control group, DMSO solution (1 μl) instead of the test substance solution was added to the PRP solution. After warming at 37° C. for 1.5 min, 10 μl of adenosine-5′-diphosphate (ADP) solution (final concentration: […]) was added, and platelet coagulation was induced. Platelet coagulation was determined for 5 min and the maximum rate of plate coagulation determined.

platelet coagulation [2] = assay: Inhibitory activities of test compounds against platelet coagulation ex vivo (oral administration to rats 4 hrs prior to blood collection, ADP-induced, PRP); type: in vivo, rat; details: for inhibition at 10 µg/mL: Rattus norvegicus, Platelet, po, 4 h, read-out: Test Example 2 (% inhibition); for Test Example 2 (% inhibition): head prints (10 μg/ml), orally administered to rats 4 hrs prior to blood collection, ADP-induced coagulation in PRP
Protocol: Three to four male Sprague-Dawley rats (8 weeks of age, Japan SLC., Inc.) per group were used in the present test. […] In the control group, the vehicle was similarly and orally administered at the rate of 1 mL/kg 4 hrs prior to the blood collection. […] The obtained blood containing sodium citrate was centrifuged (230×g for 15 min at room temperature) and PRP fraction was isolated. Furthermore, after PRP was isolated, the blood was further centrifuged (2,000×g for 10 min at room temperature) and PPP fraction was isolated. Platelet count in PRP was determined by automated hematology analyzer (KX-21N, SYSMEX CORPORATION) and adjusted as 5×10^8/ml. After PRP (240 μl) was put into each cuvette, the platelet coagulation was assessed by automated hematology analyzer. After warming at 37° C. for 1.5 min, 10 μl of ADP solution (final concentration: […]) was added, and platelet coagulation was induced. Platelet coagulation was determined for 5 min and the maximum rate of plate coagulation determined.

Row | SMILES | inhibition at 10 µg/mL (platelet coagulation [1]) [%] | inhibition at 10 µg/mL (platelet coagulation [2]) [%] | Test Example 1 (% inhibition) (platelet coagulation [1]) [%] | Test Example 2 (% inhibition) (platelet coagulation [2]) [%]
1 | O=C(O)Cn1ccc(/C=C2\CN(C(C(=O)C3CC3)c3ccccc3F)CCC2S)n1 (stereo not drawn) [Example 77, (E)-3-{[1-(Carboxymethyl)-1H-pyrazol-3-yl]methylidene}-1-[2-cyclopropyl-1-(2-fluorophenyl)-2-oxoethyl]-4-sulfanylpiperidine hydrochloride] | 76 | 77 | – | –
2 | CCOC(=O)CCn1ccc(/C=C2\CN(C(C(=O)C3CC3)c3ccccc3F)CCC2S)n1 (stereo not drawn) [Example 112, (E)-1-[2-Cyclopropyl-1-(2-fluorophenyl)-2-oxoethyl]-3-({1-[2-(ethoxycarbonyl)ethyl]-1H-pyrazol-3-yl}methylidene)-4-sulfanylpiperidine hydrochloride] | 75 | 91 | – | –
3 | CC(=O)SC1CCN(C(C(=O)C2CC2)c2ccccc2F)C/C1=C\c1ccn(CCC(=O)O)n1 (stereo not drawn) [Example 114, (E)-4-(Acetylsulfanyl)-3-{[1-(2-carboxyethyl)-1H-pyrazol-3-yl]methylidene}-1-[2-cyclopropyl-1-(2-fluorophenyl)-2-oxoethyl]piperidine hydrochloride] | – | 81 | – | –
4 | O=C(O)CCCn1ccc(/C=C2\CN(C(C(=O)C3CC3)c3ccccc3F)CCC2S)n1 (stereo not drawn) [Example 117, (E)-3-{[1-(3-Carboxypropyl)-1H-pyrazol-3-yl]methylidene}-1-[2-cyclopropyl-1-(2-fluorophenyl)-2-oxoethyl]-4-sulfanylpiperidine hydrochloride] | 70 | 63 | – | –
5 | O=C(O)CCCCn1ccc(/C=C2\CN(C(C(=O)C3CC3)c3ccccc3F)CCC2S)n1 (stereo not drawn) [Example 121, (E)-3-{[1-(4-Carboxybutyl)-1H-pyrazol-3-yl]methylidene}-1-[2-cyclopropyl-1-(2-fluorophenyl)-2-oxoethyl]-4-sulfanylpiperidine hydrochloride] | 55 | 72 | – | –
6 | O=C(O)CCn1nncc1/C=C1\CN(C(C(=O)C2CC2)c2ccccc2F)CCC1S (stereo not drawn) [Example 134, (E)-3-{[1-(2-Carboxyethyl)-1H-1,2,3-triazol-5-yl]methylidene}-1-[2-cyclopropyl-1-(2-fluorophenyl)-2-oxoethyl]-4-sulfanylpiperidine hydrochloride] | 85 | – | – | –
7 | O=C(O)CCCn1cc(/C=C2\CN(C(C(=O)C3CC3)c3ccccc3F)CCC2S)nn1 (stereo not drawn) [Example 143, (E)-3-{[1-(3-Carboxypropyl)-1H-1,2,3-triazol-4-yl]methylidene}-1-[2-cyclopropyl-1-(2-fluorophenyl)-2-oxoethyl]-4-sulfanylpiperidine hydrochloride] | 81 | 69 | – | –
8 | CCOC(=O)Cn1ccc(/C=C2/CN(C(C(=O)C3CC3)c3ccccc3F)CCC2S)n1 (stereo not drawn) [Example 154, (Z)-1-[2-Cyclopropyl-1-(2-fluorophenyl)-2-oxoethyl]-3-{[1-(ethoxycarbonylmethyl)-1H-pyrazol-3-yl]methylidene}-4-sulfanylpiperidine hydrochloride] | – | 79 | – | –
9 | CONC(=O)Cn1ccc(/C=C2\CN(C(C(=O)C3CC3)c3ccccc3F)CCC2S)n1.Cl (stereo not drawn) [Example 192, (E)-1-[2-Cyclopropyl-1-(2-fluorophenyl)-2-oxoethyl]-3-{[1-(N-methoxycarbamoylmethyl)-1H-pyrazol-3-yl]methylidene}-4-sulfanylpiperidine hydrochloride] | – | – | 84 | 81
10 | Cl.O=C(C1CC1)C(c1ccccc1F)N1CCC(S)/C(=C/c2c[nH]nn2)C1 (stereo not drawn) [Example 235, (E)-1-[2-Cyclopropyl-1-(2-fluorophenyl)-2-oxoethyl]-4-sulfanyl-3-{[1(2)H-1,2,3-triazol-4(5)-yl]methylidene}piperidine hydrochloride] | – | – | 77 | 54
11 | O=C(O)CCn1ncc(/C=C2\CN(C(C(=O)C3CC3)c3ccccc3F)CCC2S)n1 (stereo not drawn) [Example 242, (E)-3-{[2-(Carboxyethyl)-2H-1,2,3-triazol-4-yl]methylidene}-1-[2-cyclopropyl-1-(2-fluorophenyl)-2-oxoethyl]-4-sulfanylpiperidine hydrochloride] | 75 | 82 | – | –
12 | Cl.O=C(O)CCn1cc(/C=C2\CN(C(C(=O)C3CC3)c3ccccc3F)CCC2S)cn1 (stereo not drawn) [Example 249, (E)-3-{[2-(Carboxyethyl)-1H-pyrazol-4-yl]methylidene}-1-[2-cyclopropyl-1-(2-fluorophenyl)-2-oxoethyl]-4-sulfanylpiperidine hydrochloride] | – | – | 81 | 88
13 | O=C(O)CCn1nnc(/C=C2\CN(C(C(=O)C3CC3)c3ccccc3F)CCC2S)n1 (stereo not drawn) [Example 257, (E)-3-{[2-(2-Carboxyethyl)-2H-tetrazol-5-yl]methylidene}-1-[2-cyclopropyl-1-(2-fluorophenyl)-2-oxoethyl]-4-sulfanylpiperidine hydrochloride] | 87 | 51 | – | –
14 | O=C(O)CCn1nnnc1/C=C1\CN(C(C(=O)C2CC2)c2ccccc2F)CCC1S (stereo not drawn) [Example 258, (E)-3-{[1-(2-Carboxyethyl)-1H-tetrazol-5-yl]methylidene}-1-[2-cyclopropyl-1-(2-fluorophenyl)-2-oxoethyl]-4-sulfanylpiperidine hydrochloride] | 85 | 76 | – | –
15 | O=C(CCCn1nncc1/C=C1\CN(C(C(=O)C2CC2)c2ccccc2F)CCC1S)NO (stereo not drawn) [Example 262, (E)-1-[2-Cyclopropyl-1-(2-fluorophenyl)-2-oxoethyl]-3-({1-[3-(N-hydroxycarbamoyl)propyl]-1H-1,2,3-triazol-5-yl}methylidene)-4-sulfanylpiperidine hydrochloride] | 71 | 91 | – | –
